Laboratory results taken from US7435872B2, “Role of p62 in aging-related disease” (Samsung Electronics, Co., Ltd., priority 2002, dated 2008).
Square brackets hold non-standard residues; d marks the D form. Peptide text beside a SMILES is read from it. * marks the point of attachment. Nle = CCCC[C@H](N)C(=O)O; Cbz = O=C(OCc1ccccc1)*

Key:
COS7 cells [1] = assay: p62 level in triton X-100 soluble and insoluble fractions, immunoblot; format: cell-based; parameters: dose or concentration left out as unconfirmed; settings: plus cycloheximide
COS7 cells [2] = assay: Sequestosome (p62 inclusion) formation, anti-p62 immunostaining; parameters: p62 accumulation in sequestosome / cellular inclusion formation in the presence of translational inhibitor: dose or concentration left out as unconfirmed; settings: 12 hours; for formation of sequestosome: 20 mM ALLN, 5 mM lactacystin, 10 mM MG 132, 50 nM epoxomicin
[3] = system: p62+/+ and p62-/- mouse embryo fibroblast (MEF); assay: Cell viability by MTT assay after glutathione depletion; format: cell-based; settings: different concentrations of DEM or BSO; p62-null versus wild type MEFs
Procedure: (§1) FIGS. 44A-44B show effects of glutathione depletion on cell viability in p62+/+ and p62−/− mouse embryo fibroblast (MEF). Cell viability was assessed with a methylthiazolium (MTT) assay, which measures mitochondrial dehydrogenase activity of viable cells spectrophotometrically. MEF (3×10^3 cells/well) in 96-well plates were treated with different concentrations of DEM (A) or BSO (B) washed with PBS and then incubated with 0.5 mg/ml MTT in PBS for 4 h. To solubilize the formazan products, […] DMSO was added. The absorption values at 570 nm were determined.
as §1, with “In addition to the above, FIGS.” for “FIGS.”, “determined. […] This death of p62-null MEFs is an apoptotic process (FIG. 48). Thus, p62 appears to have the function of regulating cellular redox status and/or cellular reactive oxygen species (ROS) generation and scavenging systems.” for “determined.”

[4] = system: mouse embryonic fibroblasts (MEFs); assay: Ubiquitin-positive inclusion formation in MEFs; format: cell-based; parameters: dose or concentration left out as unconfirmed; settings: 12 hours
From the text: FIGS. 37A-37B show p62 aggregates formed in MEF in the presence of GSH-depletor. […] Bar=10 μm.
Ubiquitin-p62 inclusion is formed in mouse embryonic fibroblasts. […] MEFs from p62 null embryos were transfected with a p62 expression vector.
Further, p62-positive intracellular inclusion are also formed by oxidative stress. For instance, FIGS. 37A-37B show the formation of p62- or ubiquitin-positive aggregates in MEF in the presence of glutathione (GSH) depletory, diethylmaleate (DEM). […] Thus, p62 has a function to collect misfolded and/or ubiquitinated intracellular proteins and make intracellular inclusions.

p62 gene = assay: Activation of the p62 gene, immunoblot and RNA analysis; format: cell-based; settings: COS7 cells, 20 mM LLnL, with or without actinomycin D
From the text: Equivalent loading was confirmed by anti-beta-actin immunoblotting. […] Equivalent loading of RNA was confirmed by staining 28S and 18S ribosomal RNA with ethidium bromide (lower panel).

HEK 293 cells = assay: Colocalization of p62 with multi-ubiquitin chain; format: cell-based; settings: increasing concentrations of LLnL, 16 hours

C[C@@H]1C[C@@H]([C@H](O)CC2CC(=O)NC(=O)C2)C(=O)[C@@H](C)C1 [cycloheximide]
p62 cellular level (COS7 cells [1]): not increased | cellular inclusion formation in the presence of translational inhibitor (COS7 cells [2]; plus cycloheximide): not formed

CC(=O)N[C@@H](CSC(=O)[C@]1([C@@H](O)C(C)C)NC(=O)[C@H](C)[C@@H]1O)C(=O)O [lactacystin]
formation of sequestosome (COS7 cells [2]): can induce formation of sequestosome

CC[C@H](C)[C@H](NC(=O)[C@H]([C@@H](C)CC)N(C)C(C)=O)C(=O)N[C@H](C(=O)N[C@@H](CC(C)C)C(=O)[C@@]1(C)CO1)[C@@H](C)O [epoxomicin]
formation of sequestosome (COS7 cells [2]): can induce formation of sequestosome

CCCCS(=N)(=O)CCC(N)C(=O)O (stereo not shown) [BSO, buthioninesulfoximine]
cell viability (MTT) on glutathione depletion [3]: p62-null MEFs die more readily compared with wild type MEFs

CCCC[C@@H](C=O)NC(=O)[C@H](CC(C)C)NC(=O)[C@H](CC(C)C)NC(C)=O [LLnL] (Ac-Leu-Leu-[Nle]-aldehyde)
ubiquitin-positive inclusion formation, p62-heterozygote MEF [4]: can form the inclusion but less efficiently | ubiquitin-positive inclusion formation, p62-null MEF [4]: cannot form the inclusion at all | ubiquitin-positive inclusion formation, p62 wild type MEF [4]: formed ubiquitin-positive inclusions well | p62 gene activation / p62 level (p62 gene): activation of the p62 gene | colocalization of p62 with multi-ubiquitin chain (HEK 293 cells): colocalization of p62 with multi-ubiquitin chain | p62 accumulation in sequestosome (COS7 cells [2]): p62 accumulates in sequestosome | formation of sequestosome (COS7 cells [2]): can induce formation of sequestosome

CC(C)C[C@@H](C=O)NC(=O)[C@H](CC(C)C)NC(=O)[C@H](CC(C)C)NC(=O)OCc1ccccc1 [MG 132] (Cbz-Leu-Leu-Leu-aldehyde)
formation of sequestosome (COS7 cells [2]): can induce formation of sequestosome
